Measurements: the supplement of paper PMC10307832

How the values were obtained:
Assay in all cases: relative viability (nuclei count vs DMSO), 5 days (fraction); higher = more cells survive
201T = system: 201T
Procedure, shortened: (§1)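 Relative viability is defined as nuclei in treated wells over nuclei in vehicle wells. Duplicate plates were run and medians reported. Lung cancer cell lines in 1536-well plates were dosed by pin tool one day after seeding, with one drug or with a fixed anchor-drug dose plus five library-drug doses (not always all listed) in √10 steps, and nuclei were counted after 5 days.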

LU99A = system: LU99A
Procedure, shortened: as §1

NCI-H838 = system: NCI-H838
Procedure, shortened: as §1

NCI-H1651 = system: NCI-H1651
Procedure, shortened: as §1

A-427 = system: A-427
Procedure, shortened: as §1

LK-2 = system: LK-2
Procedure, shortened: as §1

NCI-H1793 = system: NCI-H1793
Procedure, shortened: as §1

NCI-H727 = system: NCI-H727
Procedure, shortened: as §1

LCLC-97TM1 = system: LCLC-97TM1
Procedure, shortened: as §1

NCI-H23 = system: NCI-H23
Procedure, shortened: as §1

H3255 = system: H3255
Procedure, shortened: as §1

NCI-H460 = system: NCI-H460
Procedure, shortened: as §1

PC-3 [JPC-3] = system: PC-3 [JPC-3]
Procedure, shortened: as §1

LCLC-103H = system: LCLC-103H
Procedure, shortened: as §1

COR-L23 = system: COR-L23
Procedure, shortened: as §1

SW 900 = system: SW 900
Procedure, shortened: as §1

RERF-LC-KJ = system: RERF-LC-KJ
Procedure, shortened: as §1

NCI-H1944 = system: NCI-H1944
Procedure, shortened: as §1

PC-14 = system: PC-14
Procedure, shortened: as §1

NCI-H1650 = system: NCI-H1650
Procedure, shortened: as §1

NCI-H650 = system: NCI-H650
Procedure, shortened: as §1

SW 1573 = system: SW 1573
Procedure, shortened: as §1

NCI-H2347 = system: NCI-H2347
Procedure, shortened: as §1

Clc1ccc(Nc2nnc(Cc3ccncc3)c3ccccc23)cc1 [Vatalanib] + CC(=O)Nc1cccc(-n2c(=O)n(C3CC3)c(=O)c3c(Nc4ccc(I)cc4F)n(C)c(=O)c(C)c32)c1 [Trametinib] (partner 0.02 µM)
relative viability (201T; first compound 0.04 µM): 0.718 | relative viability (201T; first compound 0.1265 µM): 0.743 | relative viability (201T; first compound 0.4 µM): 0.75 | relative viability (201T; first compound 1.265 µM): 0.731 | relative viability (201T; first compound 4 µM): 0.735 | relative viability (LU99A; first compound 0.04 µM): 0.563 | relative viability (LU99A; first compound 0.1265 µM): 0.527 | relative viability (LU99A; first compound 0.4 µM): 0.647 | relative viability (LU99A; first compound 1.265 µM): 0.492 | relative viability (LU99A; first compound 4 µM): 0.521 | relative viability (NCI-H838; first compound 0.04 µM): 0.575 | relative viability (NCI-H838; first compound 0.1265 µM): 0.539 | relative viability (NCI-H838; first compound 0.4 µM): 0.657 | relative viability (NCI-H838; first compound 1.265 µM): 0.462 | relative viability (NCI-H838; first compound 4 µM): 0.509 | relative viability (NCI-H1651; first compound 0.04 µM): 0.802 | relative viability (NCI-H1651; first compound 0.1265 µM): 0.778 | relative viability (NCI-H1651; first compound 0.4 µM): 0.779 | relative viability (NCI-H1651; first compound 1.265 µM): 0.742 | relative viability (NCI-H1651; first compound 4 µM): 0.809 | relative viability (A-427; first compound 0.04 µM): 0.741 | relative viability (A-427; first compound 0.1265 µM): 0.743 | relative viability (A-427; first compound 0.4 µM): 0.867 | relative viability (A-427; first compound 4 µM): 0.73 | relative viability (LK-2; first compound 0.04 µM): 0.677 | relative viability (LK-2; first compound 0.1265 µM): 0.682 | relative viability (LK-2; first compound 0.4 µM): 0.774 | relative viability (LK-2; first compound 1.265 µM): 0.876 | relative viability (LK-2; first compound 4 µM): 0.667 | relative viability (NCI-H1793; first compound 0.04 µM): 0.372 | relative viability (NCI-H1793; first compound 0.1265 µM): 0.494 | relative viability (NCI-H1793; first compound 0.4 µM): 0.424 | relative viability (NCI-H1793; first compound 1.265 µM): 0.388 | relative viability (NCI-H1793; first compound 4 µM): 0.425 | relative viability (NCI-H727; first compound 0.1265 µM): 0.413 | relative viability (NCI-H727; first compound 0.4 µM): 0.377 | relative viability (NCI-H727; first compound 1.265 µM): 0.37 | relative viability (NCI-H727; first compound 4 µM): 0.394 | relative viability (LCLC-97TM1; first compound 0.04 µM): 0.18 | relative viability (LCLC-97TM1; first compound 0.1265 µM): 0.197 | relative viability (LCLC-97TM1; first compound 0.4 µM): 0.198 | relative viability (LCLC-97TM1; first compound 1.265 µM): 0.195 | relative viability (LCLC-97TM1; first compound 4 µM): 0.184 | relative viability (NCI-H23; first compound 0.04 µM): 0.308 | relative viability (NCI-H23; first compound 0.1265 µM): 0.296 | relative viability (NCI-H23; first compound 0.4 µM): 0.356 | relative viability (NCI-H23; first compound 1.265 µM): 0.363 | relative viability (NCI-H23; first compound 4 µM): 0.419 | relative viability (H3255; first compound 0.04 µM): 0.563 | relative viability (H3255; first compound 0.1265 µM): 0.606 | relative viability (H3255; first compound 0.4 µM): 0.57 | relative viability (H3255; first compound 1.265 µM): 0.583 | relative viability (H3255; first compound 4 µM): 0.58 | relative viability (NCI-H460; first compound 0.04 µM): 0.178 | relative viability (NCI-H460; first compound 0.1265 µM): 0.11 | relative viability (NCI-H460; first compound 0.4 µM): 0.201 | relative viability (NCI-H460; first compound 1.265 µM): 0.135 | relative viability (NCI-H460; first compound 4 µM): 0.0924 | relative viability (PC-3 [JPC-3]; first compound 0.04 µM): 0.78 | relative viability (PC-3 [JPC-3]; first compound 0.1265 µM): 0.675 | relative viability (PC-3 [JPC-3]; first compound 0.4 µM): 0.547 | relative viability (PC-3 [JPC-3]; first compound 1.265 µM): 0.619 | relative viability (PC-3 [JPC-3]; first compound 4 µM): 0.646 | relative viability (LCLC-103H; first compound 0.04 µM): 0.663 | relative viability (LCLC-103H; first compound 0.1265 µM): 0.663 | relative viability (LCLC-103H; first compound 0.4 µM): 0.684 | relative viability (LCLC-103H; first compound 1.265 µM): 0.653 | relative viability (LCLC-103H; first compound 4 µM): 0.669 | relative viability (COR-L23; first compound 0.04 µM): 0.606 | relative viability (COR-L23; first compound 0.1265 µM): 0.587 | relative viability (COR-L23; first compound 0.4 µM): 0.721 | relative viability (COR-L23; first compound 1.265 µM): 0.578 | relative viability (COR-L23; first compound 4 µM): 0.534 | relative viability (SW 900; first compound 0.04 µM): 0.768 | relative viability (SW 900; first compound 0.1265 µM): 0.696 | relative viability (SW 900; first compound 0.4 µM): 0.558 | relative viability (SW 900; first compound 1.265 µM): 0.877 | relative viability (SW 900; first compound 4 µM): 0.714 | relative viability (RERF-LC-KJ; first compound 0.04 µM): 0.931 | relative viability (RERF-LC-KJ; first compound 0.1265 µM): 0.867 | relative viability (RERF-LC-KJ; first compound 0.4 µM): 0.903 | relative viability (RERF-LC-KJ; first compound 1.265 µM): 0.791 | relative viability (RERF-LC-KJ; first compound 4 µM): 0.782 | relative viability (NCI-H1944; first compound 0.04 µM): 0.42 | relative viability (NCI-H1944; first compound 0.1265 µM): 0.373 | relative viability (NCI-H1944; first compound 0.4 µM): 0.438 | relative viability (NCI-H1944; first compound 1.265 µM): 0.425 | relative viability (NCI-H1944; first compound 4 µM): 0.386 | relative viability (PC-14; first compound 0.04 µM): 0.671 | relative viability (PC-14; first compound 0.1265 µM): 0.826 | relative viability (PC-14; first compound 0.4 µM): 0.991 | relative viability (PC-14; first compound 1.265 µM): 0.738 | relative viability (PC-14; first compound 4 µM): 0.6 | relative viability (NCI-H1650; first compound 0.04 µM): 0.598 | relative viability (NCI-H1650; first compound 0.1265 µM): 0.532 | relative viability (NCI-H1650; first compound 0.4 µM): 0.306 | relative viability (NCI-H1650; first compound 1.265 µM): 0.656 | relative viability (NCI-H1650; first compound 4 µM): 0.508 | relative viability (NCI-H650; first compound 0.04 µM): 0.941 | relative viability (NCI-H650; first compound 0.1265 µM): 0.796 | relative viability (NCI-H650; first compound 0.4 µM): 0.997 | relative viability (NCI-H650; first compound 1.265 µM): 0.924 | relative viability (NCI-H650; first compound 4 µM): 0.904 | relative viability (SW 1573; first compound 0.1265 µM): 0.569 | relative viability (SW 1573; first compound 0.4 µM): 0.607 | relative viability (SW 1573; first compound 1.265 µM): 0.58 | relative viability (SW 1573; first compound 4 µM): 0.564 | relative viability (NCI-H2347; first compound 0.04 µM): 0.278 | relative viability (NCI-H2347; first compound 0.1265 µM): 0.277 | relative viability (NCI-H2347; first compound 0.4 µM): 0.279 | relative viability (NCI-H2347; first compound 1.265 µM): 0.266 | relative viability (NCI-H2347; first compound 4 µM): 0.309
